Data published in the SangsterLogP compilation.

Experiment: method code G-GLC, from DOI: 10.1021/es00162a015, PMID: 19995068

| Structure (SMILES) | logP |
| --- | --- |
| Clc1ccc2c(c1)Oc1ccccc1O2 | 4.94 |
| Clc1ccc2oc3ccc(Cl)cc3c2c1 | 5.44 |
| Brc1c(Br)c(Br)c(-c2c(Br)c(Br)c(Br)c(Br)c2Br)c(Br)c1Br | 8.58 |
| Cc1ccc(-c2ccc(C)cc2)cc1 | 5.09 |
| Brc1ccc(-c2ccc(Br)cc2)cc1 | 5.72 |
| Brc1ccc(Br)c(-c2cc(Br)c(Br)cc2Br)c1 | 7.1 |
| Brc1ccccc1-c1ccccc1 | 4.59 |
| Cc1ccc(-c2ccccc2)cc1 | 4.63 |
| Brc1ccc(-c2ccccc2)cc1 | 4.96 |
| Brc1cccc(-c2ccccc2)c1 | 4.85 |
| Clc1c(Cl)c(Cl)c2c(c1Cl)Oc1ccccc1O2 | 6.2 |
